One test concerns PANC-1. The experiment in a line: Antiproliferative activity against human PANC1 cells by MTT assay. Format: functional, cell-based. (In general: Tetrazolium assays rely on reduction of a dye to a coloured formazan, in cell work by metabolically active cells.)
For test [1], the system named is HT-29. Briefly: Antiproliferative activity against human HT-29 cells by MTT assay. Type of test: functional, cell-based.
The subject of another test is HepG2. The experiment in a line: Antiproliferative activity against human HepG2 cells by MTT assay. Type of test: functional, cell-based.
The next test relates to A-375. Briefly: Growth inhibition of human A375 cells by MTT assay. Format: functional, cell-based.
Another test relates to HeLa. The experiment in a line: Growth inhibition of human HeLa cells by MTT assay. Format: functional, cell-based.
A further test deals with A549. The experiment in a line: Growth inhibition of human A549 cells at 330 umol/L by MTT assay relative to control. Format: functional. The conditions noted are these: read-out: GI.
Test [2] relates to SW480. Briefly: Growth inhibition of human SW480 cells at 330 umol/L by MTT assay relative to control. Format: functional. The conditions noted are these: read-out: GI.
The next test relates to A-431. Briefly: Growth inhibition of human A431 cells at 120 umol/L by MTT assay relative to control. The settings on record: read-out: GI. Format: functional.
The subject of test [3] is SW480. The experiment in a line: Antitumor activity against human SW480 cells xenografted in Balb/c mouse assessed as tumor growth inhibition at 30 mg/kg, ip administered 2 times per week relative to control. The settings on record: read-out: TGI. Format: functional. (A xenograft is tissue or cells of one species grown in another, often human tumour cells in immunodeficient mice.)

The subject of test [4] is HT-29. The experiment in a line: Growth inhibition of human HT-29 cells at 10 ug/ml by MTT assay relative to control. Type of test: functional. The settings on record: read-out: GI.
Test [5] deals with HT-29. The experiment in a line: Growth inhibition of human HT-29 cells at 2.5 ug/ml by MTT assay relative to control. The settings on record: read-out: GI. Type of test: functional.
Test [6] has as its system HT-29. Briefly: Growth inhibition of human HT-29 cells at 5 ug/ml by MTT assay relative to control. Type of test: functional. The settings on record: read-out: GI.
Test [7] relates to HT-29. Briefly: Growth inhibition of human HT-29 cells at 1.25 ug/ml by MTT assay relative to control. The conditions noted are these: read-out: GI. Type of test: functional.

Bounds are passed on as bounds.

Consider `COc1ccc(/C=C2\CC[C@@H]3[C@H]4CCCN5CCC[C@@H](CN3C2=O)[C@@H]45)cc1`, for which the IC50 in the test with PANC-1 and with HT-29 [1] was 27.8 µM each time. In the case of `COc1cc(/C=C2\CC[C@@H]3[C@H]4CCCN5CCC[C@@H](CN3C2=O)[C@@H]45)cc(OC)c1OC`, the IC50 in the test with PANC-1 and in the test on HT-29 [1] was 9.05 µM each time.

As to `O=C(CCC[C@@H]1[C@H]2CCCN3CCC[C@@H](CN1Cc1ccccc1)[C@@H]23)OCCc1no[n+]([O-])c1S(=O)(=O)c1ccccc1`, inhibition in the test with HepG2 was half-maximal at 11.4 µM (IC50). Regarding `CCCCOC(=O)CCC[C@@H]1[C@H]2CCCN3CCC[C@@H](CN1Cc1ccccc1)[C@@H]23`, the IC50 (usually the concentration at which inhibition is half-maximal) in the test on A-375 came to 149 µM; in the test with HeLa it was 304 µM. `O=C(CCC[C@@H]1[C@H]2CCCN3CCC[C@@H](CN1Cc1ccccc1)[C@@H]23)OCCCc1no[n+]([O-])c1S(=O)(=O)c1ccccc1` had an IC50 in the test on HepG2 of 11.5 µM. Regarding `COc1ccc(/C=C2\CC[C@@H]3[C@H]4CCCN5CCC[C@@H](CN3C2=O)[C@@H]45)c(OC)c1OC`, the IC50 with PANC-1 and in the test on HT-29 [1] was 13.2 µM each time. For the compound `O=C1C[C@@H](SC(=S)N2CCCCC2)C[C@@H]2[C@H]3CCCN4CCC[C@@H](CN12)[C@@H]34`, the inhibition of growth at 330 µM with A549 is greater than 95%; with SW480 [2], greater than 65%. Besides, in the test with A-431, the inhibition of growth at 120 µM was greater than 94%. Turning to `COc1ccc(/C=C2\CC[C@@H]3[C@H]4CCCN5CCC[C@@H](CN3C2=O)[C@@H]45)cc1OC`, the IC50 in the test with PANC-1 and with HT-29 [1] was 18 µM each time.

Compound `O=C(CCC[C@@H]1[C@H]2CCCN3CCC[C@@H](CN1Cc1ccccc1)[C@@H]23)NCCc1no[n+]([O-])c1S(=O)(=O)c1ccccc1` yielded a concentration for half-maximal inhibition (IC50) in the test with HepG2 of 8.02 µM. `O=C(CCC[C@@H]1[C@H]2CCCN3CCC[C@@H](CN1Cc1ccccc1)[C@@H]23)OCCOCCc1no[n+]([O-])c1S(=O)(=O)c1ccccc1` gave an IC50 in the test on HepG2 of 14.2 µM. Turning to `O=c1[nH]cc(F)c(=O)[nH]1` [FLUOROURACIL], in the test on SW480 [3], the inhibition in vivo at 30 mg/kg stood at 63.1%. Regarding `CCc1c2c(nc3ccc(OC(=O)N4CCC(N5CCCCC5)CC4)cc13)-c1cc3c(c(=O)n1C2)COC(=O)[C@]3(O)CC` [IRINOTECAN], the inhibition of growth at 10 µg/mL in the test on HT-29 [4] came to 59.3%. Also, the inhibition of growth at 2.5 µg/mL in the test on HT-29 [5] worked out at 37.4%. Besides, the inhibition of growth at 5 µg/mL in the test with HT-29 [6] came out at 54.7%. In the test on HT-29 [7], the inhibition of growth at 1.25 µg/mL was 22.9%.
